Experimental data published in patent US20260315609A1, “MIXED VASOPRESSIN RECEPTOR AGONIST-ANTAGONIST FOR TREATING END-STAGE LIVER DISEASE AND COMPLICATIONS ASSOCIATED THEREOF” (FERRING B.V., priority 2022, published 2026).
Positions of bridges follow the written chain, without caps; N, C: chain ends. Residues, ends and D or L forms follow the SMILES beside them.

How the values were obtained:
[1] = system: mean arterial pressure (MAP); assay: Telemetry: ΔMAP in cynomolgus monkeys, Compound 1 (SC) versus terlipressin (IV); type: in vivo, cynomolgus monkey
Experimental: The in-life portion of the study was performed over multiple dosing sessions using six non-naive adult male cynomolgus monkeys. Animals were previously (3-4 weeks before study start) instrumented with indwelling pressure telemetry devices and trained to be restrained in chairs. Animals had access to food and drinking water ad libitum.
Stock solutions were diluted in saline on the day of administration. Animals with indwelling pressure telemetry devices were trained to be restrained in chairs for 8-h periods.
On the day of administration, animals were restrained, and telemetric measurements were collected continuously starting ≥2 h before administration. Baseline values of arterial pressure (diastolic and systolic), heart rate, and body temperature were obtained.
The data reported herein were collected over 19 dosing sessions of four animals each, using a total of six monkeys. Animals were repeat dosed in a crossover design with at least one animal receiving vehicle for each round; the animal receiving vehicle was varied between rounds. A 48- to 72-h washout period was used between dosing sessions. Animals were observed by camera for ~1 h before dosing (covering the baseline period) and up to 3 h after dosing.

[2] = system: methionine/choline-deficient (MCD) diet rats; assay: MAP / ΔMAP in methionine/choline-deficient (MCD) diet rats; type: in vivo, rat; settings: for Δ MAP (mean): 100 μg/kg, IA, MCD diet rats
Experimental: The terlipressin dose was 100 μg/kg.
Data were evaluated as change […] from baseline.

[3] = system: methionine/choline-deficient (MCD) diet rats; assay: ΔPP in methionine/choline-deficient (MCD) diet rats; type: in vivo, rat; settings: 100 μg/kg, IA, MCD diet rats
[4] = system: V1a, V1b, and V2 receptors; settings: cited from earlier work
rV2 receptor = molecular target: T1, rV2 receptor (Rattus norvegicus, UniProt Q00788); assay: Luciferase reporter gene assay, rat V2; type: cell-based; settings: read-out: % MPE
T1 construct: expressed in transfected cells; host or cells: HEK-293 cells (ATCC), transient
Experimental: (§1) Cell Lines. Studies were conducted with cell lines expressing rat (r) or human (h) Via, V1b, V2, or OT receptors. For the experiments with human receptors, human embryonic kidney (HEK)-flp-in cells stably expressing the lacZ-Zeocin™ fusion gene were used for expression of hV1a and hV1b. These cells were designed for use with the Flp-In™ expression vector containing the gene of interest (here hV1a or hV1b) and the Flp recombinase expression plasmid, pOG44. For hV2 and hOTR, HEK-293 cells transiently expressing hV2 were used.
(§2) Functional Cell-Based Assays.

rOTR = molecular target: T2, rOTR (Rattus norvegicus, UniProt P70536); assay: Luciferase reporter gene assay, rat OT; type: cell-based; settings: read-out: % MPE
T2 construct: expressed in transfected cells
T2 sequence (P70536 1-388): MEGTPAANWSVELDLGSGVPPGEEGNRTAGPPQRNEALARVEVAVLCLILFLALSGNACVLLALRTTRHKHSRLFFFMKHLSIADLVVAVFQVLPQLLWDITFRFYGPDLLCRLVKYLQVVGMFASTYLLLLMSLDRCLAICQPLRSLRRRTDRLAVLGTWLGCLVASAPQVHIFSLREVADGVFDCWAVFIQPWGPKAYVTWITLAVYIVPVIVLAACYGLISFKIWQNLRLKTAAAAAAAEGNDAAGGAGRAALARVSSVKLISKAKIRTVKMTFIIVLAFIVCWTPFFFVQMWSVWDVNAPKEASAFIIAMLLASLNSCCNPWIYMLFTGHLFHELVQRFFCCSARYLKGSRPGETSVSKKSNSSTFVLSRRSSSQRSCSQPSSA
Experimental: as §1, §2

skin blood flow (SBF) = assay: Skin blood flow (SBF), laser Doppler, anesthetized Wistar rats, IV infusion; type: in vivo, rat
Experimental: This study was performed over multiple experiments using a total of 48 adult male Wistar rats. […] Compounds were infused via an IV catheter at six sequentially increasing doses.
(§3) On the day of experimentation animals were anesthetized and instrumented. A tracheostomy was performed to allow assisted respiration and three catheters were placed. Laser Doppler probes were positioned on a shaved portion of the animal's lower abdominal skin for blood-flow measurements. Ventilation was initiated, and baseline readings for the primary parameter of skin blood flow (SBF) were recorded. Readings for the secondary parameters were also recorded: (1) blood lactate concentration, (2) mean arterial pressure (MAP), and (3) blood pH. Data collection was performed continuously for SBF and MAP using NOTOCORD-hem™ (Instem), and blood samples were taken at each compound dose and immediately analyzed using an i-STAT® meter.
After the final dose administration, animals were euthanized and a final SBF measurement was recorded to detect any signal from the flow probe after the animal's heart stopped beating to control for a signal not attributed to blood flow. Animal body temperature, pulse, and ventilation adequacy were monitored throughout the procedure.

blood lactate = assay: Blood lactate concentration, anesthetized Wistar rats, IV infusion; type: in vivo, rat
Experimental: This study was performed over multiple experiments using a total of 48 adult male Wistar rats. […] Compounds were infused via an IV catheter at six sequentially increasing doses. A group of vehicle-administered animals received vehicle throughout the study and data were reported from intervals timed analogously with the dose-response in compound 1-administered animals.
as §3

T1 sequence (Q00788 whole entry): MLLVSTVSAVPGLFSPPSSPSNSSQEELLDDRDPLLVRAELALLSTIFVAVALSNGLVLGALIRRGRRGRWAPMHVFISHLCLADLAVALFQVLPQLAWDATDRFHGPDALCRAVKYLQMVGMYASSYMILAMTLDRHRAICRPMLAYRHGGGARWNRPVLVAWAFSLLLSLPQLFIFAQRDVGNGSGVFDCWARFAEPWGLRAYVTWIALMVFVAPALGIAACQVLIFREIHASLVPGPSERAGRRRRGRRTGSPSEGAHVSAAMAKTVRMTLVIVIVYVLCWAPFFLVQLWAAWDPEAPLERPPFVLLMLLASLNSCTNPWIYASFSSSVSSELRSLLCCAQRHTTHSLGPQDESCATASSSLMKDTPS

Structure (SMILES): NCCCC[C@H](NC(=O)[C@@H]1CCCN1C(=O)[C@@H]1CSSC[C@H](NC(=O)CNC(=O)CNC(=O)CN)C(=O)N[C@@H](Cc2ccc(O)cc2)C(=O)N[C@@H](Cc2ccccc2)C(=O)N[C@@H](CCC(N)=O)C(=O)N[C@@H](CC(N)=O)C(=O)N1)C(=O)NCC(N)=O [Terlipressin, reference compound] (H-GGGCYFQNCPKG-NH2; disulfide 4-9)
- average increase in MAP, 30 min to 5 h ([1]; IV 0.03 mg/kg): 6.0 mmHg
- maximum MAP values (increase from baseline) ([1]; IV 0.03 mg/kg (vehicle 22.2)): 29.6±3.6 mmHg
- average increase in MAP, 30 min to 5 h ([1]; IV 0.09 mg/kg): 5.8 mmHg
- maximum MAP values (increase from baseline) ([1]; IV 0.09 mg/kg (vehicle 22.2)): 29.9±6.2 mmHg
- average increase in MAP, 30 min to 5 h ([1]; IV 0.17 mg/kg): 14.6 mmHg
- maximum MAP values (increase from baseline) ([1]; IV 0.17 mg/kg (vehicle 22.2)): 50.8±5.6 mmHg
- average increase in MAP, 30 min to 5 h ([1]; IV 0.34 mg/kg): 14.7 mmHg
- maximum MAP values (increase from baseline) ([1]; IV 0.34 mg/kg (vehicle 22.2)): 41.2±7.5 mmHg
- time of maximum ΔMAP ([1]; IV, all groups): 5 to 30 min
- ΔMAP by 150 min ([1]; IV, all groups): negligible
- Δ MAP (mean) ([2]; 0 min): 0.0 mmHg
- Δ MAP (mean) ([2]; 1 min): 6.1 mmHg
- Δ MAP (mean) ([2]; 10 min): 32.0 mmHg
- Δ MAP (mean) ([2]; 90 min): 5.2 mmHg
- rapid increase in MAP, up to ([2]; intra-arterial, FIG. 34): about 35 mmHg
- Δ PP (mean) ([3]; 0 min): 0.0 mmHg
- Δ PP (mean) ([3]; 1 min): −1.5 mmHg
- Δ PP (mean) ([3]; 2 min): −2.1 mmHg
- Δ PP (mean) ([3]; 3 min): −2.3 mmHg
- Δ PP (mean) ([3]; 5 min): −2.4 mmHg
- Δ PP (mean) ([3]; 7 min): −2.5 mmHg
- Δ PP (mean) ([3]; 10 min): −2.4 mmHg
- Δ PP (mean) ([3]; 15 min): −2.5 mmHg
- Δ PP (mean) ([3]; 20 min): −2.6 mmHg
- Δ PP (mean) ([3]; 30 min): −2.5 mmHg
- Δ PP (mean) ([3]; 60 min): −2.8 mmHg
- Δ PP (mean) ([3]; 90 min): −0.8 mmHg
- serious adverse events ([4]; gastrointestinal disorders, sepsis, respiratory failure): associated with serious adverse events
- effect on ascites formation ([4]; non-selective full agonist, continuous i.v. infusion): reduced ascites formation
- short-term mortality ([4]; plus albumin, HRS-AKI, versus placebo): reduces short-term mortality

Structure (SMILES): NC(=O)CC[C@@H]1NC(=O)[C@H](Cc2ccccc2)NC(=O)[C@H](Cc2ccc(O)cc2)NC(=O)[C@@H](N)CSSC[C@@H](C(=O)N2CCC[C@H]2C(=O)N[C@@H](CCCN=C(N)N)C(=O)NCC(N)=O)NC(=O)[C@H](CC(N)=O)NC1=O [AVP, arginine vasopressin, reference compound]
- Emax (rV2 receptor): 98%
- Emax (rOTR): 82%
- SBF ED50 (skin blood flow (SBF)): 12.6 pmol/kg/min
- decrease in skin blood flow, approximate maximum (skin blood flow (SBF)): about 90%
- greatest percent change from baseline in skin flow (skin blood flow (SBF)): −89.5%
- blood lactate concentration (blood lactate; 3 pmoL/kg/min IV): 1.34 mM
- blood lactate concentration (blood lactate; 600 pmoL/kg/min IV): 4.27 mM
- increase in blood lactate levels (blood lactate; IV): ≥ 2 fold
- effect on blood lactate concentration (blood lactate; IV, up to maximum dose tested): significantly elevated

Structure (SMILES): NCCCC[C@H](NC(=O)[C@@H]1CCCN1C(=O)[C@@H]1CSSC[C@H](N)C(=O)N[C@@H](Cc2ccc(O)cc2)C(=O)N[C@@H](Cc2ccccc2)C(=O)N[C@@H](CCC(N)=O)C(=O)N[C@@H](CC(N)=O)C(=O)N1)C(=O)NCC(N)=O [Lysine vasopressin (LVP), Lysine vasopressin]
- receptor agonism type ([4]; V1a, V1b, and V2 receptors): full agonist
